In publication PMC10119930, “Dual Molecules Targeting 5-HT6 and GABA-A Receptors as a New Approach to Combat Depression Associated with Neuroinflammation” (ACS Chemical Neuroscience, 2023):
Blank lines part the entries; values can stand above or below the molecule they belong to.

Experiments:
BV-2 microglia cells [1] = experiment: Anti-inflammatory assessment in LPS-stimulated BV-2 cells (NO, ROS, IL-6, TNF-α); assay type: cell-based, mouse; settings: 10 μM pretreatment 1 h, then LPS 18 h
Description: Mouse microglial (BV-2) cell line was a generous gift from Prof. Bożena Kamińska-Kaczmarek of the Nencki Institute of Experimental Biology, Polish Academy of Sciences, Warsaw, Poland. The cell culture medium: Dulbecco’s modified with high glucose (DMEM, Glutamx ThermoFisher) and supplemented with 10% inactivated fetal bovine serum heat (ThermoFisher), 100 IU/mL penicillin (Merck) and 100 μg/mL streptomycin (Merck). Cell culture conditions: culture flasks (area 175 cm^2, Nunc), temperature of 37 °C, 5% CO2. For the assessment of the effect of tested compounds on the quantities of reactive oxygen species, nitric oxide, and inflammatory markers, the BV-2 cells were positioned in a 96-well culture plate (5 × 10^4 cells per well, Falcon). In the case of cell membrane damage assay, a 96-well culture plate (2 × 10^4 cells per well, Falcon) was used. The cells were cultured in the incubator (37 °C, 5% CO2) for 24 h prior to the assay. The tested compounds were dissolved in DMSO to achieve the concentration of 10^–2 M. Serial dilutions of the compounds were prepared in PBS and added directly to the medium containing adherent cells. The resulting mixtures were examined for any evidence of precipitation or opalescence before the assay. BV-2 cells were incubated with selected molecules (6, 16 at a concentration of 10 μM) during 1 h. Subsequently, lipopolysaccharide (100 ng/mL) was added and the resulting mixture was incubated for 18 h. Next, the culture supernatant was collected to measure the levels of nitric oxide (NO), reactive oxygen species (ROS), IL-6, and TNF-α according to the procedures described in detail below. All experiments were performed in duplicates, in three independent experiments.
The quantities of NO produced by the cells were determined using DAN reagent (2,3-diaminonaphthalene), rendering the method protocol described by Nussler et al.[48] After incubating at room temperature for 15 min, the fluorescence intensity (EX 360; EM 440 nm) was measured using a microplate reader POLARstar Omega from BMG Labtech. The amounts of NO were then calculated as a percentage of the control (which represents the maximal response of LPS). ROS measurement. The fluorescent dye 2,7-dichlorodihydrofluorescein diacetate (DCFH-DA)[49] was utilized to determine the quantity of ROS released by BV-2 cells. After a 30 min incubation period at 37 °C with 10 μM DCFH-DA, the fluorescence intensity (EX 490; EM 520 nm) was examined using a microplate reader POLARstar Omega from BMG Labtech. The amounts of ROS were then expressed as a percentage of the control (which represents the maximal response of LPS). The IL-6 and TNF-α levels detected in the culture supernatants were quantified using LANCE Ultra TR-FRET detection kit (PerkinElmer), rendering the manufacturer’s procedure. The detection of IL-6 and TNF-α was performed independently in a 384-well plate according to the instructions provided. To each well of the plate, 15 μL of sample was added followed by the addition of 5 μL of premixed antibody solution. After incubating IL-6 for 1 h and TNF-α for 3 h in the absence of light, at 22 °C, the plates were transferred to an EnVision plate reader (PerkinElmer). Measurements were conducted at 320 nm wavelength for excitation, at 615 nm for donor emission, and at 660 nm for acceptor emission. The final data were determined as the ratio of the 660 nm signal to the 615 nm signal. The results represent the levels of each cytokine determined as a percentage of control (considered as maximal cell response to LPS). The GraphPad program was used to conduct statistical analysis, with all outcomes presented as mean values with standard deviation (SD). Differences between groups were assessed using one-way ANOVA, followed by post hoc analysis (Dunnett’s multiple comparison tests). Results were considered statistically significant if the p-value was less than 0.05. […]

BV-2 microglia cells [2] = experiment: Evaluation of microglia morphology by fluorescence microscopy (MitoTracker) after LPS; assay type: cell-based, mouse; settings: 10 μM pretreatment 1 h, LPS 18 h
5-HT6 receptor = 5-HT6 receptor (Homo sapiens, UniProt P50406); experiment: Radioligand binding assay for 5-HT6 receptor ([3H]-LSD displacement); set-up: expressed in transfected cells; host or cells: HEK-293 (cryopreserved membranes); settings: competitive replacement of [3H]-LSD; ±S.E.M.; read-out: 5-HT6R Ki
Description: To determine the affinity for 5-HT6, the cryopreserved membranes from HEK-293 cells stably transfected with the human recombinant 5-HT6 receptor were used.[40] Preparation of the tested compounds included preparation of stock solutions in DMSO (1 mM) and subsequent serial dilutions (10^–10–10^–5 M) of tested compounds in the appropriate buffer (50 mM Tris buffer, pH 7.4, 10 mM MgCl2, 0.5 mM ethylenediaminetetraacetic acid). The serial dilutions were acquired directly on a 96-well microplate. The reaction mix included 50 μL of appropriate concentration of tested molecule, 50 μL of [^3H]LSD 2.5/2.0 nM, and 150 μL of diluted membranes. The microplate containing the reaction mix was protected with a sealing tape and incubated for 60 min at 37 °C. Quenching of the reaction mixtire included: rapid filtration through UniFilter 96 GF/B filter microplate and rapid washes using 200 μL 50 mM assay buffer and vacuum manifold and 96-well pipettor. The collected microplates were dried overnight at 37 °C. The UniFilter bottoms were sealed, and then 30 μL of Betaplate Scint liquid scintillator (PerkinElmer) was added to each well. […] The obtained data were fit to a one-site curve-fitting equation using Prism 5 software (GraphPad Software), and the Ki values were determined using the Cheng–Prusoff equation. Radioligand binding was performed in duplicates.

female Wistar rats [3] = experiment: Forced swim test in rats; assay type: in vivo, rat; settings: acute, ip 30 min before test
Description: Naïve female Wistar rats (weighing 180–200 g) were used in the study. The animals were housed in groups of three to four in standard Makrolon cages (37 cm × 21 cm × 15 cm) under strictly controlled laboratory conditions (ambient temperature 21–24 °C, relative humidity 45–65%) with a 12/12 h light–dark regime (light on at 6:00 a.m. and off at 6:00 p.m.). Animals had unrestricted access to tap water and food (typical pellets). Prior the experiment the animals were randomly appointed to the group. The behavioral studies were accomplished between 8:00 a.m. and 5:00 p.m. with the researcher blind to the study. The experiments were performed according to protocols approved by the Local Ethical Committee in Krakow (Approval Number 147/2018), Poland. Housing and experimental procedures were conducted under the European Union Directive of September 22, 2010 (2010/63/EU) and Polish legislation regarding animal studies. All efforts were made to minimize animal suffering and the number of animals used in the study.
Vortioxetine (Sigma, Germany) and the tested compounds (16 and 6) were dissolved in 10% cyclodextrin and administered ip 30 min before the test or during 14 consecutive days, with the last injection 60 min before the test. 10% cyclodextrin was administrated to control group.
A modified forced swim test was carried out according to Detke et al.[50],[51] First, the animals were individually placed inside Plexiglas cylinders, which were 40 cm high and 18 cm in diameter, filled with water at a temperature of 23–25 °C for 15 min. Afterward, the rats were transferred to a Plexiglas box and kept under a 60 W bulb for 30 min to dry. The day after, exactly 24 h later, the rats were once again placed in the cylinder, and their duration of immobility, swimming, and climbing was observed and recorded during a 5 min. The swimming behavior involved energetic movements such as horizontal swimming around the cylinder, while climbing activity referred to upward movements of the forepaws along the swim chamber’s side. Immobility was recorded when the rat only made necessary movements to keep its head above the water. For each test, a fresh water was provided. Open field test in rats: The test was conducted as previously reported by our research group.[52] The test was performed in a darkened room employing the Motor Monitor System (Campden Instruments, Ltd., U.K.). The system was equipped with two SmartFrame Open Field stations, each measuring 40 cm × 40 cm × 38 cm and consisting of 16 × 16 beams. These stations were placed inside sound-attenuating chambers and connected to a PC software using […]. The animals, belonging to either the vehicle-injected or drug-injected group, were individually positioned at the center of the station. The Motor Monitor System, which was automated, recorded the animal’s ambulation in both the X and Y axes, as well as the number of rearing and peeping episodes. Additionally, the total distance traveled by each animal during the 5 min test period was also recorded. Statistical analysis: Results are presented as the mean ± SEM values. They were estimated using one-way analysis of variance (ANOVA), followed by Newman–Keuls post hoc or unpaired two-tailed Student t test. Statistical significance was considered when p < 0.05 for differences between groups.

female Wistar rats [4] = system: female Wistar rats; set-up: method as in PMID 36603509; settings: not tested here; cited from earlier work
[5] = system: human α1β2γ2-GABA-A receptors; experiment: Electrophysiological studies, automated patch clamp (QPatch16X), HEK293 cells; assay type: cell-based; settings: agonist mode, compound at 10 μM; current amplitude normalized to 10 μM GABA response; ±S.E.M.
Description: Electrophysiological studies were acquired using the QPatch16X automatic patch clamp platform (Sophion Biosciences) as described before.[42],[43] […] Before the assay, cells were detached from the culture flask by treating them with TrypLE Express solution (Life Technologies) and subsequently suspended in serum-free media. The cells were loaded into a 1.5 mL microtube on the automated electrophysiology instrument, which subsequently performed a spin-down using its built-in centrifuge. Following this, the cells were washed with Ringer’s extracellular solution. The cells were moved to the pipetting wells of a 16-channel planar patch chip plate (QPlate 16X) designed for single-use. A combined suction/voltage protocol was then applied to establish gigaseals. […] During the entire whole-cell recording, the holding potential was maintained at −90 mV. […] The intracellular solution contained 140 mM CsF, 1 mM EGTA, 5 mM CsOH, 10 mM HEPES, 20 mMNaCl (pH 7.2, 320 mOsm). […] The acquired data were examined with QPatch assay software (v5.0, Sophion Biosciences)[44] and are represented as the mean of three separated measurements performed on distinct cells. The efficacy of the tested molecules was determined by calculating the baseline-corrected ratio of the maximum current amplitudes elicited by the tested compounds and the reference agonist (T1-ATG/AG1-ATG or T2-ATG/AG1-ATG). The raw current recordings were standardized and presented as a percentage of the current amplitude evoked by the reference agonist, using the QPatch assay software (v5.0, Sophion Biosciences).

[6] = Parallel artificial membrane permeability assay (PAMPA); assay type: in vitro ADME; settings: tested at 10^–5 M, PAMPA Plate System Gentest
Description: To estimate the passive transport through cell membranes, we used specialized PAMPA Plate System Gentest acquired from Corning (Tewksbury, MA, USA). The assay was performed as described in the manufacturer’s protocol. The quantitative measurements of tested molecules in apical and basolateral wells were conducted using LC/MS (Waters ACQUITY TQD system with the TQ detector, Milford, USA) and a specific internal standard. The Pe permeability coefficient was calculated rendering the formulas described previously[47],[47] and compared to the reference compound sulpiride.

Chain of 5-HT6 receptor (P50406 whole entry): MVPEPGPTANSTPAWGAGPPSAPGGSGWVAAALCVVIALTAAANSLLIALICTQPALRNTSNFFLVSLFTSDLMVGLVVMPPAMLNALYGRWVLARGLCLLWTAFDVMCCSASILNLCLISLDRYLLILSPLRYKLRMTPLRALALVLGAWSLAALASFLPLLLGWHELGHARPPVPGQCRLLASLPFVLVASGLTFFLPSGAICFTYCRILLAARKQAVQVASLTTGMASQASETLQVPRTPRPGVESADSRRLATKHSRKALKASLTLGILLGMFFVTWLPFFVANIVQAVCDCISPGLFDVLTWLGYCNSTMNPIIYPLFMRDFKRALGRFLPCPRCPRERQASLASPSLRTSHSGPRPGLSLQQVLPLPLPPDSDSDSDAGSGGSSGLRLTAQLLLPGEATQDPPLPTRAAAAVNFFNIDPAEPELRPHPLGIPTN

Ki (5-HT6 receptor): 8 ± 0.8 nM
Structure (SMILES): Cc1c(OCc2ccccc2)cccc1N1CCN(CCO)CC1 [Compound 6, 2-(4-(3-(Benzyloxy)-2-methylphenyl)piperazin-1-yl)ethan-1-ol]
LPS-induced IL-6 production (BV-2 microglia cells [1]): did not change
LPS-induced NO production (BV-2 microglia cells [1]): did not change
LPS-induced ROS production (BV-2 microglia cells [1]): did not change
LPS-induced TNF-α production (BV-2 microglia cells [1]): did not change
mitochondrial membrane potential / morphology of microglia exposed to LPS (BV-2 microglia cells [2]): mitochondrial membrane potential was changed
immobility, climbing and swimming behaviors (female Wistar rats [3]): did not influence any of the above behaviors

Structure (SMILES): NCCCC(=O)O [GABA]
antidepressant effects (female Wistar rats [4]): does not produce antidepressant effects
[%] of 10 μM GABA activity [5]: 100%

Papp [6]: 0.16 nm/s
Structure (SMILES): CCN1CCCC1CNC(=O)c1cc(S(N)(=O)=O)ccc1OC (stereo not shown) [sulpiride, reference compound]
